Reference: ChEMBL document CHEMBL1130409, “Hydrazide-containing inhibitors of HIV-1 integrase” (J Med Chem, 1997)

Key:
[1] = biological target: T1, Human immunodeficiency virus type 1 integrase (Human immunodeficiency virus 1, UniProt Q7ZJM1); experiment: Inhibition of HIV-1 integrase enzyme by 3'-processing method
[2] = biological target: T1, Human immunodeficiency virus type 1 integrase; experiment: Inhibition of HIV-1 integrase enzyme
[3] = biological target: T1, Human immunodeficiency virus type 1 integrase; experiment: Inhibition of HIV-1 integrase enzyme by 3'-processing method (experiment 1)
[4] = biological target: T1, Human immunodeficiency virus type 1 integrase; experiment: Inhibition of HIV-1 integrase enzyme by 3'-processing method (experiment 2)
[5] = biological target: T1, Human immunodeficiency virus type 1 integrase; experiment: Inhibition of HIV-1 integrase enzyme by integration method (experiment 1)
[6] = biological target: T1, Human immunodeficiency virus type 1 integrase; experiment: Inhibition of HIV-1 integrase enzyme by integration method (experiment 2)
[7] = biological target: T1, Human immunodeficiency virus type 1 integrase; experiment: Inhibition of HIV-1 integrase enzyme by integration method

T1 sequence (Q7ZJM1 whole entry): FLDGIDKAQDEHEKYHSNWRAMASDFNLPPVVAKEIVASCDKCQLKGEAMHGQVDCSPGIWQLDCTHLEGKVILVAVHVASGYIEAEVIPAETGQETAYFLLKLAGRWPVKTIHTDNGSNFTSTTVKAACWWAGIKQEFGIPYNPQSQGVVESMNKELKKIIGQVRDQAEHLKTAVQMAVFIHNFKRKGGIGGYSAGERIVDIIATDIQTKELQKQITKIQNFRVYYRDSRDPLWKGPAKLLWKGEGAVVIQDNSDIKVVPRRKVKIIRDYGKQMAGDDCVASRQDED

SMILES	IC50 [1]	IC50 [2]	other results
Nc1ccccc1C(=O)NNC(=O)c1ccccc1N	> 100 µM	> 100 µM	
NNC(=O)c1ccccc1N	> 100 µM	> 100 µM	
NNC(=O)c1ccccc1O			IC50 [3]: 46 µM; IC50 [4]: 114 µM; IC50 [5]: 33 µM; IC50 [6]: 43 µM
Nc1ccccc1C(=O)NNC(=O)c1ccccc1O	> 100 µM	> 100 µM	
NNC(=O)c1ccccc1S			IC50 [3]: 70 µM; IC50 [4]: 79.6 µM; IC50 [5]: 57.5 µM; IC50 [6]: 50 µM
NN(CC(O)COc1ccccc1)C(=O)c1ccccc1O (stereo not given)	> 200 µM	> 200 µM	
O=C(NNC(=O)c1ccccc1O)c1ccccc1	> 100 µM	> 100 µM	
O=C(N/N=C/c1ccccc1O)c1ccccc1O	> 100 µM	> 100 µM	
O=C(NNC(=O)c1ccccc1O)c1ccccc1O	2.07 µM	0.73 µM	
CC(=O)NNC(=O)c1ccccc1O	> 100 µM	> 100 µM	
O=C(NCCCNC(=O)c1ccccc1O)c1ccccc1O	> 200 µM	> 200 µM	
O=C(NNCc1ccccc1O)c1ccccc1O	6.7 µM	5.2 µM	
NC(=O)c1ccccc1O [SALICYLAMIDE]	> 100 µM	> 100 µM	

More lines, main results first:

IC50 [1]	IC50 [2]	SMILES	other results
> 100 µM	> 100 µM	O=C(NNC(=O)c1ccccc1)c1ccccc1	
> 100 µM	> 100 µM	O=C(NNC(=O)c1ccccn1)c1ccccn1	
> 200 µM		O=C(NNCC(O)COc1ccccc1)c1ccccc1O (stereo not given)	IC50 [7]: > 200 µM
2.3 µM	1.1 µM	O=C(NNC(=O)c1cc2ccccc2cc1O)c1ccccc1O	
9.1 µM	5.8 µM	O=C(NNC(=O)c1ccccc1S)c1ccccc1O	
